The test system of data set [1] is Dutch Belted rabbits. The data set is described as follows: In vivo rabbit miosis model, low-light (scotopic) conditions. Conditions: for animals with greater than 2.5 mm reduction in pupil size from baseline: 0.1% w:v, scotopic (<10 lux), n=6; for miotic efficacy compared with brimonidine: single topical dose, low light, FIG. 1 to FIG. 4. How it is done:
(§1) Female Dutch Belted rabbits (Covance, Princeton, New Jersey) weighing between 2-4 kg were used for these studies. […] For topical dosing, eye drops (volume=35 μl) were instilled into the lower conjunctival sac of the test eye.
Pupil diameter was measured in both the treated and untreated eye with an Optistick to the nearest 0.5 mm. […] All studies were done under low-light conditions in which a red photography light is used providing 2-10 Lux of light.

The subject of data set [2] is Dutch Belted rabbits. Kind of data set: In vivo rabbit miosis model, room light conditions. Conditions: room lighting conditions, FIG. 5. How it is done: Percentage amounts are % w:v.
as §1
Pupil diameter was measured in both the treated and untreated eye with an Optistick to the nearest 0.5 mm. In all studies, baseline pupil diameter measurements were taken prior to drug administration and then at 0.5, 1, 2, 3 and 4 hours post dose. […]

The procedure of data set [3]:
Aliquots of the PBS only curve were quenched at time zero to be used as stability controls and calibration standards. Following centrifugation, samples were analyzed by LC-MS/MS bioanalysis. Back-calculated concentrations using the assay PBS curve were used for binding and stability calculations.

Another data set concerns patients. The data set is described as follows: Patient case examples (presbyopia, glare/starbursts/halos, night vision, night myopia). The class given is in vivo, human. An excerpt: A person complains of an inability to focus on text when reading up close, which is interfering with their ability of read documents at work, as well as reading books and news articles. The problem seems worse under lower lighting conditions, such as the dim lighting in a restaurant. The visual degradation had been occurring over time, but in recent months, the person's inability to focus on text when read close up had been more pronounced such as to interfere with their quality of life. The person is seen by an ophthalmologist who performs a visual acuity test in which they are asked to read lines of letters on an eye chart without the assistance of glasses or contacts (neither of which they wear anyway). They find that they are only able to read the first four lines on the chart, when a person with normal vision should be able to read six. Based on the person's age and results of the test, they are diagnosed with presbyopia. The person is reluctant to have to obtain reading glasses or wear contact lenses and asks if there are any other medical treatments. They are instructed to administer to their eyes a composition comprising a compound of Formula I one or two times a day. Starting with the first couple of doses, the patient reports improved vision when reading text up close. On a follow-up visit to the ophthalmologist, they are again asked to read lines of letters on an eye chart (they are still administering the composition with the compound of Formula I to their eyes), and this time they are able to read the first six lines, a two line improvement over their previous results prior to administering the compound of Formula I to their eyes.
A person has noticed that their near vision has been deteriorating over the last few years such that they often have to hold reading material almost out to arm's length in order to be able to read the print, especially when the ambient light is dim. The person visits their ophthalmologist who performs a basic eye exam and refraction assessment. Based on the examination, the ophthalmologist prescribes a composition comprising brimonidine to constrict the person's pupil to treat the presbyopia, and the person is instructed to administer the composition to their eyes daily as needed.
A person decides to undergo LASIK surgery. The surgeon who will perform the surgery evaluates the patient and determines that they are a suitable candidate for the surgery, but is told that side effects of the surgery include visual glare, visual starbursts, and visual halos, especially at night. The surgeon performs the surgery without any noticeable issues and the patient is discharged. A day later the patient drives home during the evening for the first time since the surgery and notices what appear to be starbursts of light emanating from the headlights and rear lights of other cars, as well as from street lights, and also glare coming from those light sources that interfere with is vision. The patient also observes diffuse rings around some of the street lights and illuminated street signs. Upon consultation, the surgeon confirms that such visual disturbances are indeed the visual glare, visual starburst, and visual halo side effects often seen after LASIK surgery, and the patient is prescribed a composition comprising the compound of Formula I, which the patient administers to their eyes in accordance with the package instructions.
A person has noticed that they are having issues seeing the street names on street signs with good contrast when they are driving at night. The person consults with their ophthalmologist who, upon hearing the patient's description and performing a visual acuity test under low light conditions, prescribes a composition comprising the compound of Formula I, which the patient administers to their eyes in accordance with the package instructions. […]

The next data set concerns presbyopic patients. Conditions: different lighting conditions, McDonald II et al.; cited from earlier work.

With `Cc1c(N=C2NCCN2)ccc2[nH]cnc12` [Compound 1], the “animals with greater than 2.5 mm reduction in pupil size from baseline” value with Dutch Belted rabbits [1] (after 6 hours) is listed as “more than half”; in the data set with Dutch Belted rabbits [1] (two hours after dosing), “virtually all”. The “miotic efficacy compared with brimonidine” value in the data set with Dutch Belted rabbits [1] was “greater magnitude of pupil size reduction”. In the data set on Dutch Belted rabbits [1] (topical dose, FIG. 6), the “pupil constriction at 9 hours after dosing” value is “significant pupil constriction”. In addition, the “effect on pupil constriction compared to Compound 3” value in the data set on Dutch Belted rabbits [1] (topical dose, FIG. 7) was “greater effect”. For the same molecule, in the data set on Dutch Belted rabbits [2], the “miotic action compared with brimonidine (peak pupil constriction and duration of action)” value is recorded as “greater miotic action than brimonidine”. Besides, in data set [3], the “melanin binding (assessment in words)” value is given as “no significant melanin binding”. Moreover, the “ability to focus on distant objects at night” value with patients (person with night myopia) is listed as “as good as their ability to do so during the day”. In addition, in the data set on patients (person with presbyopia), the “administrations needed per day to treat presbyopia” value was “once (or sometimes twice)”. Moreover, the “improvement in lines read on eye chart” value in the data set with patients (person with presbyopia, composition one or two times a day) was “two”. The night vision contrast result in the data set on patients (person, driving at night) is recorded as “much better contrast”. The “visual glare, starbursts and halos after LASIK” value with patients (person, night driving) is on record as “significantly reduced”.
Consider `CCc1c(N=C2NCCN2)ccc2[nH]cnc12` [Compound 2, reference compound], for which the “miotic efficacy compared with brimonidine” value in the data set on Dutch Belted rabbits [1] is “much less than brimonidine”.
On to `Brc1c(N=C2NCCN2)ccc2[nH]cnc12` [Compound 3, reference compound], for which the “miotic efficacy compared with brimonidine” value in the data set with Dutch Belted rabbits [1] was “much less than brimonidine”.
As for `Brc1c(NC2=NCCN2)ccc2nccnc12` [Compound 4, brimonidine, reference compound], the “animals with greater than 2.5 mm reduction in pupil size from baseline” value with Dutch Belted rabbits [1] (after 6 hours) is reported as “virtually none”; with Dutch Belted rabbits [1] (half hour after dosing), “much less than half”. Further, the “melanin binding (assessment in words)” value in data set [3] is “much more significant binding”. For the same molecule, in the data set on patients (person with presbyopia), the “administrations needed per day to treat presbyopia” value is recorded as “three”. In addition, in the data set with presbyopic patients, the “average pupil size after brimonidine” value is recorded as 3.4 mm.

Values taken from US20240358682A1, “USE OF ALPHA-2-ADRENERGIC RECEPTOR AGONISTS FOR IMPROVING VISION” (Allergan, Inc., priority 2018, published 2024).
